Assay results published in BindingDB's records for doi:10.1021/jm00403a011 (Bristol Myers Squibb, 1988).

Biological target: D(2) dopamine receptor (Rattus norvegicus, UniProt P61169)
Assay: ChEBML_61437
Description: In vitro antagonistic activity against Dopamine receptor D2 was evaluated for the inhibition of [3H]spiperone binding

Chain of D(2) dopamine receptor (P61169 whole entry): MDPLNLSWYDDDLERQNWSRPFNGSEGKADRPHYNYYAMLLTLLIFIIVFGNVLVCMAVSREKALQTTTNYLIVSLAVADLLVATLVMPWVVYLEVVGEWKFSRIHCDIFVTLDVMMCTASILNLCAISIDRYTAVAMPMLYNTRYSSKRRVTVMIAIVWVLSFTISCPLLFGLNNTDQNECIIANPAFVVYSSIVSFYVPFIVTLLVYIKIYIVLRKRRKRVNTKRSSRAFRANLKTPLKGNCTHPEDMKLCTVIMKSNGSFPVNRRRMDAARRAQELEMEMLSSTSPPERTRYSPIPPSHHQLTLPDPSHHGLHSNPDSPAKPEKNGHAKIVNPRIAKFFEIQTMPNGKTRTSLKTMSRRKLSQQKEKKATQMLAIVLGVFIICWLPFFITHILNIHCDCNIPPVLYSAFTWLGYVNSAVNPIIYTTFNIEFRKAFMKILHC

Row | Compound | IC50 [µM]
1 | CCN(CC)CCNC(=O)c1cc(Cl)c(N)cc1OCC(C)N=O (configuration not stated) [4-Amino-5-chloro-N-(2-diethylamino-ethyl)-2-(2-hydroxyimino-propoxy)-benzamide] | > 1
2 | CCN(CC)CCNC(=O)c1cc(Cl)c(N)cc1OC(C)C(C)N=O (configuration not stated) [4-Amino-5-chloro-N-(2-diethylamino-ethyl)-2-(2-hydroxyimino-1-methyl-propoxy)-benzamide] | > 1
